Reference: article PMC6271079, “Amino Acid Derivatives of Ligustrazine-Oleanolic Acid as New Cytotoxic Agents” (Molecules, 2014)

Legend:
Hela = experiment: MTT cytotoxicity assay, Hela; assay type: cell-based, human; conditions: Homo sapiens, 72 h, cervical cancer cells
Experimental: (§1) The cytotoxicity of these compounds was tested on five cells lines by the standard MTT assay. The human cancer cells lines (HepG2, HT-29, Hela, BGC-823) and MDCK cells were provided by the Chinese Academy of Medical Sciences Peking Union Medical College. The tumor cells were cultured in RPMI 1640 medium supplemented with 10% (v/v) fetal bovine serum and 1% (v/v) penicillin-streptomycin (Thermo Technologies, New York, NY, USA) at 37 °C in a humidified atmosphere with 5% CO2. The growing tumor cells at a density 3 × 10^3 cells/mL were exposed to various concentrations of the tested drugs and incubated in a 96-well microtiter plate for 72 h (37 °C, 5% CO2). After MTT solution (20 μL, 5 mg/mL) was added to each well, the plate was incubated for a further 4 h. Then the media was removed. Formazan crystals were dissolved with DMSO (150 μL). After mixing well, the absorbance was quantified at 490 nm with a BIORAD 550 spectrophotometer (Bio-rad Life Science Development Ltd., Beijing, China). Wells containing no drugs were used to be blanks. The IC50 values were defined as the concentration of compounds that produced a 50% reduction of surviving cells and calculated using the Logit-method. Tumor cell growth inhibitory rate was calculated in the following Equation (1): % inhibition = (1 − Sample group OD/Control group OD) × 100%(1)

MDCK cells = experiment: MTT toxicity (nephrotoxicity) evaluation, MDCK; assay type: cell-based; conditions: Canis lupus familiaris, MDCK, 72 h, Madin-Darby canine kidney cells
Experimental: as §1

BGC-823 = experiment: MTT cytotoxicity assay, BGC-823; assay type: cell-based; conditions: BGC-823, 72 h, human gastric cancer cells
Experimental: as §1

NF-κB/p65 and COX-2 = tested on: NF-κB/p65 and COX-2; parameters: method as in PMID 24147349; conditions: S180 mice; cited from earlier work
HepG2 = experiment: MTT cytotoxicity assay, HepG2; assay type: cell-based; conditions: HepG2, 72 h, human hepatoma cells
Experimental: as §1

HT-29 = experiment: MTT cytotoxicity assay, HT-29; assay type: cell-based; conditions: HT-29, 72 h, human colorectal cancer cells
Experimental: as §1

mice = conditions: via gavage in mice; earlier studies, no reference given; cited from earlier work
[1] = logP by shake flask-ultraviolet spectrophotometry; assay type: physicochemical; conditions: n-caprylic alcohol-water (octanol/water); pH 6.8, n-caprylic alcohol-water, shake flask-UV; read-out: logP (octanol-water partition coefficient)
Excerpt: Lipophilicity (ClogP) is used in rational drug design as a key factor related to the cell transmembrane transport or other biological processes. ClogP values can either be calculated experimentally or predicted by means of commercially available programs. In this work, ClogP values of the TOA-amino acid derivatives were predicted using Sybyl-X 2.0 (Tripos, Certara Inc., St. Louis, MO, USA). […] To determine the octanol-water partition coefficient (logP), a shake flask-ultraviolet spectrophotometry method was used to determine the concentration of 6a and TOA in the water phase and organic phase at pH 6.8 with n-caprylic alcohol-water as the simulation system. […] However, the better activity connected with the increases of these amino acid conjugates’ solubility is worthy of further study.

SMILES: Cc1nc(C)c(COC(=O)[C@]23CCC(C)(C)CC2C2=CCC4[C@@]5(C)CC[C@H](O)C(C)(C)C5CC[C@@]4(C)[C@]2(C)CC3)nc1C (stereo partly drawn) [TOA, 3β-Hydroxyolea-12-en-28-oic acid-3,5,6-trimethylpyrazine-2-methyl Ester]
- IC50 (Hela): 8.68 µM
- IC50 (MDCK cells): > 25 µM
- IC50 (BGC-823): > 25 µM
- Expression of NF-κB/p65 and COX-2 (NF-κB/p65 and COX-2): prevented the expression
- IC50 (HepG2): 21.4 µM
- IC50 (HT-29): > 25 µM
- LD50 (mice): exceeded 6.0 g/kg
- logP [1]: 6.11
